Data set [1] addresses T1, Liver X receptor (Homo sapiens) (UniProt Q13133+P55055). In words: Agonist activity at LXR in human THP1 cells assessed as induction of ABCG1 gene expression at 100 uM after 48 hrs by immunoblot analysis relative to control. In kind it is functional, cell-based. Conditions: THP-1. (In general: In western blotting, separated proteins are transferred to a membrane and probed.)

The test system of data set [2] is HepG2. As to the kind of experiment: Upregulation of CPT-1 gene expression in human HepG2 at 100 uM by qPCR analysis relative to control. It counts as functional, cell-based. A general note: Real-time PCR tracks product formation cycle by cycle.
In data set [3] the test system is HepG2. As to the kind of experiment: Reduction in SCD-1 gene expression in human HepG2 cells at 100 uM by qPCR analysis relative to control. In kind it is functional. Further details: scale not given: the % may be the effect or the level left.
The subject of data set [4] is HepG2. In words: Reduction in SCD-1 gene expression in human HepG2 cells at 50 uM by qPCR analysis relative to control. In kind it is functional. Further details: scale not given: the % may be the effect or the level left.
The test system of data set [5] is HepG2. In words: Induction of lipid accumulation in human HepG2 cells assessed as cellular triglyceride concentration at 50 to 100 uM. In kind it is cell-based. Particulars: hepg2, 100 µM.
Data set [6] has as its target T1, Liver X receptor (Homo sapiens). In words: Agonist activity at LXR in human Caco2 cells assessed as decrease in NPC1L1 mRNA level at 100 uM after 48 hrs by qPCR analysis relative to control. It counts as functional, cell-based. Further details: scale not given: the % may be the effect or the level left. Conditions: Caco-2.
For data set [7] the target is unchanged. As to the kind of experiment: Agonist activity at LXR in human Caco2 cells assessed as increase in ABCG8 mRNA level at 100 uM after 48 hrs by qPCR analysis relative to control. It counts as functional, cell-based. Particulars: Caco-2.
For data set [8] the target is unchanged. In words: Agonist activity at LXR in human Caco2 cells assessed as increase in ABCG5 mRNA level at 100 uM after 48 hrs by qPCR analysis relative to control. In kind it is functional, cell-based. Conditions: Caco-2.
Data set [9] in a line: Agonist activity at LXR in mouse RAW 264.7 assessed as increase in ABCG1mRNA level at 100 uM after 48 hrs by qPCR analysis relative to control. It counts as functional.
Data set [10] has as its target T1, Liver X receptor (Homo sapiens). As to the kind of experiment: Agonist activity at LXR in human THP1 monocytes assessed as increase in ABCG1 mRNA level at 100 uM after 48 hrs by qPCR analysis relative to control. It counts as functional, cell-based.
For data set [11] the target is unchanged. As to the kind of experiment: Agonist activity at LXR in human THP1 cells assessed as induction of ABCG1 gene expression after 48 hrs by qPCR analysis. In kind it is functional, cell-based. Conditions: THP-1.
Data set [12] has the same target. As to the kind of experiment: Agonist activity at LXR in human THP1 cells assessed as induction of ABCA1 gene expression after 48 hrs by qPCR analysis. In kind it is functional, cell-based. Particulars: THP-1.
The target of data set [13] is T2, Oxysterols receptor LXR-alpha (Homo sapiens) (UniProt Q13133).
T2 sequence (whole entry): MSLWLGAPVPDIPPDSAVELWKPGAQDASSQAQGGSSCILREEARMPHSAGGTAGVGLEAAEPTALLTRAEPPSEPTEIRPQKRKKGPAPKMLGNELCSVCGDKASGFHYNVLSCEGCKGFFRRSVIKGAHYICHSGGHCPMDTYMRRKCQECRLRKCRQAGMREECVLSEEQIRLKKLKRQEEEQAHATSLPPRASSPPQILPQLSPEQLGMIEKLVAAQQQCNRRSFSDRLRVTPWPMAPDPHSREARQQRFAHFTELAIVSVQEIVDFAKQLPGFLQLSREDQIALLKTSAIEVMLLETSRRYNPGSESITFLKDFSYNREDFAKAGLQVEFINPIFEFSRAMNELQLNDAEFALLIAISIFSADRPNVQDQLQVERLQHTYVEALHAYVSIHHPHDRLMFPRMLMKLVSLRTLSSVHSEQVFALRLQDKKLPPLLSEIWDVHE
In words: Agonist activity at LXR-alpha in human Caco2 cells assessed as reduction in cellular cholesterol level. In kind it is functional, cell-based. Particulars: Caco-2.

The target in data set [14] is T3, Oxysterols receptor LXR-alpha (Mus musculus) (UniProt Q9Z0Y9).
T3 sequence (whole entry): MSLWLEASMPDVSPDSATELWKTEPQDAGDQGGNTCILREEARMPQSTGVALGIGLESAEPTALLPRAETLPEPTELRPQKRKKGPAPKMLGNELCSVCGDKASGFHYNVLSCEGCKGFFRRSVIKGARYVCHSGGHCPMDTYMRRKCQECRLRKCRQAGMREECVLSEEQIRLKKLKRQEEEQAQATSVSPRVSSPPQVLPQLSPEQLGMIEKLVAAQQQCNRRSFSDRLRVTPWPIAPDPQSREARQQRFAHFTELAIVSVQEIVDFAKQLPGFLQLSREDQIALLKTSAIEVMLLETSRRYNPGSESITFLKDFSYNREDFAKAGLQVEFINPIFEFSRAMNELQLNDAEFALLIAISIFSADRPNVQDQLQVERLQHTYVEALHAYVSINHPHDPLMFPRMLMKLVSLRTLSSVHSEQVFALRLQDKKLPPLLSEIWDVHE
As to the kind of experiment: Agonist activity at LXR-alpha in mouse RAW264.7 cells assessed as reduction in cellular cholesterol level. It counts as functional, cell-based.

The target of data set [15] is T2, Oxysterols receptor LXR-alpha (Homo sapiens). As to the kind of experiment: Binding affinity to human LXR-alpha LBD by SPR-Biacore assay. Background: Surface plasmon resonance follows binding to a sensor surface in real time, without labels.
For data set [16], the target named is T4, Peroxisome proliferator-activated receptor gamma (Homo sapiens) (UniProt P37231).
T4 sequence (whole entry): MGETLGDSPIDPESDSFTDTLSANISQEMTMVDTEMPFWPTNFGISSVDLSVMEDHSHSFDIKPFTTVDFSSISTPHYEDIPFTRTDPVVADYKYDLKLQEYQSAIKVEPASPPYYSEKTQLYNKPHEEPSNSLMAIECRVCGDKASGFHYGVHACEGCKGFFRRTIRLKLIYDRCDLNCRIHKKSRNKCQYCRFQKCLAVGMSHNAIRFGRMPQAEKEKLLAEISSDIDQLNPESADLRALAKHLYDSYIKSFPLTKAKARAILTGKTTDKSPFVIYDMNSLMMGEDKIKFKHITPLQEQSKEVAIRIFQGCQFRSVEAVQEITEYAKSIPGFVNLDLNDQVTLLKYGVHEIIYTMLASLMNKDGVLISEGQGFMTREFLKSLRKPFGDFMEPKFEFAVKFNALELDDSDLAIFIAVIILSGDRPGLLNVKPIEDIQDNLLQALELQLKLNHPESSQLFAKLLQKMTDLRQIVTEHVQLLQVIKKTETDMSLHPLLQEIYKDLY
As to the kind of experiment: Transactivation of PPAR-gamma transfected in HEK293 cells at 50 to 100 uM after 24 hrs by luciferase reporter gene assay. In kind it is cell-based.

Data set [17] has as its system THP-1. As to the kind of experiment: Cytotoxicity against human THP1 cells after 48 hrs by MTT assay. In kind it is cell-based. Conditions: thp-1, 48 h.

Each structure is given as a SMILES string. Active and inactive are the calls of the source. No cut-off for these calls is given here.

The results in this text go back to ChEMBL document CHEMBL2203118, “Ethyl 2,4,6-trihydroxybenzoate is an agonistic ligand for liver X receptor that induces cholesterol efflux from macrophages without affecting lipid accumulation in HepG2 cells” (Bioorg Med Chem Lett, 2012).

T1 sequence (P55055 whole entry, looked up, one chain of several): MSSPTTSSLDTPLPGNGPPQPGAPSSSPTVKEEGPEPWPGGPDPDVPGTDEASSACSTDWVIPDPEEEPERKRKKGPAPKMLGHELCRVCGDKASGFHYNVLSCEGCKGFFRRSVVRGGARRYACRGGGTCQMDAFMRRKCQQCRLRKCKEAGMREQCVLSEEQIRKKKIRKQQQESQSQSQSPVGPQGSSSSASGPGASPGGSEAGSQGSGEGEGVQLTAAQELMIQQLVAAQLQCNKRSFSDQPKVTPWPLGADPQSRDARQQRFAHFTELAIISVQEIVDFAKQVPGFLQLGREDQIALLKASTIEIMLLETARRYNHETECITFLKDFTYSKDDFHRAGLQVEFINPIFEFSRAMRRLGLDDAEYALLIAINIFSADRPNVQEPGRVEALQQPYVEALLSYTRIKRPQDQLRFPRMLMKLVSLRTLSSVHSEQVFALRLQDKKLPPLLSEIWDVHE

With `CCOC(=O)c1c(O)cc(O)cc1O`, the result in data set [1], in data set [2] and in data set [15] was Active. The Activity was 54.09% in data set [3]; 47.6% in data set [4]; “Non-toxic” in data set [5]; 33.2% in [6]; “Dose-dependent effect” in data set [11]; “Dose-dependent effect” in data set [12]. Besides, the Activity entry in data set [13] is “Dose-dependent effect”; in data set [14], “Dose-dependent effect”; in data set [17], “Non-toxic”. The fold change (FC) turned out to be 1.5 in data set [7], 12.6 in data set [8], 2.9 in data set [9] and 5.2 in data set [10]. In addition, the result in data set [16] was inactive.
